Tested on: individuals with hypertension
Test: Blood pressure and heart rate response to metoprolol by β1AR codon 389 / codon 49 genotype
Format: in vivo, human
Conditions: for 24 hr SBP response (% change) / 24 hr DBP response (% change) / Daytime DBP response (% change) / Daytime SBP response (% change) / Nighttime DBP response (% change) / Nighttime SBP response (% change): at least 4 weeks
Experimental: Genetic variation (polymorphisms) in the gene encoding the beta 1-adrenergic receptor (β1AR) contribute to the variability in response to beta-blockers. There are two common, non-synonymous polymorphisms of the P AR gene and they result in either a serine (Ser) or glycine (Gly) at codon 49, and arginine (Arg) or glycine (Gly) at codon 389. The relationship between these polymorphisms and heart rate and blood pressure response to the beta-blocker metoprolol was tested in 28 individuals with hypertension.
Patients were washed out from all their antihypertensive medications for at least 2 weeks. They then underwent baseline testing which included recording of 24-hour ambulatory blood pressure data and treadmill exercise heart rate responses at 10 AM and 2 PM. Patients were started on metoprolol and titrated to a dose that produced a diastolic blood pressure DBP<90 mm Hg, or until they reached the maximum dose (200 mg twice daily). Patients were maintained on this target dose for at least 4 weeks and then underwent repeat studies, as at baseline.
Patients were also divided as responders or non-responders, with non-responders defined as those with a <10% decline in DBP, and compared allele frequencies in these groups.

[1] = Arg389Arg genotype, metoprolol titrated
[2] = Ser49Ser genotype, metoprolol titrated
[3] = codon 49 Gly carriers, metoprolol titrated
[4] = codon 389 Gly carriers, metoprolol titrated

COCCc1ccc(OCC(O)CNC(C)C)cc1 (stereo not drawn) [metoprolol]
24 hr SBP response (% change) (Arg389Arg genotype, metoprolol titrated to DBP<90 mm Hg or max 200 mg twice daily, 24-hour ambulatory BP vs baseline): −10.5 ± 7.9 % change
24 hr DBP response (% change) [1]: −12.6 ± 7.4 % change
Daytime DBP response (% change) [1]: −13.6 ± 7.2 % change
Daytime SBP response (% change) [1]: −11.6 ± 8.0 % change
Nighttime DBP response (% change) [1]: −10.6 ± 11.6 % change
Nighttime SBP response (% change) [1]: −7.5 ± 9.5 % change
Daytime blood pressure response (Arg389 homozygotes compared to carriers of Gly389, not nighttime): significantly greater
24 hr DBP response (% change) [2]: −10.7 ± 7.8 % change
24 hr SBP response (% change) [2]: −10.1 ± 9.1 % change
Daytime DBP response (% change) [2]: −10.3 ± 8.2 % change
Daytime SBP response (% change) [2]: −10.2 ± 9.3 % change
Nighttime DBP response (% change) [2]: −12.4 ± 9.4 % change
Nighttime SBP response (% change) [2]: −9.3 ± 10.9 % change
change in nighttime blood pressure (Ser49 homozygotes compared to carriers of the Gly49 allele): significantly greater
24 hr DBP response (% change) [3]: −3.9 ± 8.9 % change
24 hr SBP response (% change) [3]: −0.6 ± 12.2 % change
Daytime DBP response (% change) [3]: −4.0 ± 10.4 % change
Daytime SBP response (% change) [3]: −1.0 ± 12.8 % change
Nighttime DBP response (% change) [3]: −3.1 ± 9.0 % change
Nighttime SBP response (% change) [3]: +0.6 ± 11.8 % change
24 hr DBP response (% change) [4]: −4.6 ± 8.3 % change
Daytime DBP response (% change) [4]: −3.5 ± 8.7 % change
Daytime SBP response (% change) [4]: −2.8 ± 12.5 % change
Nighttime DBP response (% change) [4]: −7.3 ± 9.1 % change
Nighttime SBP response (% change) [4]: −3.9 ± 13.9 % change
24 hr SBP response (% change) (codon 389 Gly carriers, metoprolol titrated, ambulatory BP vs baseline): −3.3 ± 12.6 % change
heart rate response to beta-blockade (treadmill exercise heart rate, relation to β1AR genotype): not associated with genotype

Source: patent US20040033524A1, “Beta-adrenoceptor genetic polymorphisms and obesity” (priority 2001, published 2004)
